Structures are written as SMILES. Where two headings read alike, the source gives them in different places. Non-standard residues stand in square brackets, D forms with d. Residues, ends and D or L forms follow the SMILES beside them.

One series relates to E. coli ATCC 25922. The series is classed as cell-based. As to conditions: for E. coli MIC (ATCC 25922): ATCC 25922, 24 h. Here is the method:
(§1) The bacterial strains used were E. coli ATCC 25922 and S. aureus ATCC 9144. Overnight cultures and MIC assays were performed in cationic-adjusted BD BBL Mueller Hinton II Broth (MHB II, 212322, Becton, Dickson and Company, Sparks, MD, USA).
(§2) The MICs for 1–5 were determined using the CLSI M07-A9 guidelines. Working solutions were prepared in double distilled water containing max. 1% DMSO. A concentration range between 256–0.25 µg/mL was tested for each peptide. The bacterial inoculum was 1 × 10^6 cells/mL and incubated 1:1 with each test compound in a polypropylene 96-well round-bottom plate (655209, Greiner Bio-One, Kresmmuenster, Austria). Each MIC test was performed in three biological replicates, consisting of four technical replicates. Positive controls (without antibiotics) and negative controls (without bacteria) were included for each technical replicate. The reference antibiotic erythromycin was included to assure quality control. The plates were incubated for 24 h at 37 °C. The MIC value was defined as the lowest concentration of compound resulting in no visible bacterial growth.

A further series concerns S. aureus ATCC 9144. Type of series: cell-based. As to conditions: for S. aureus MIC (ATCC 9144): ATCC 9144, 24 h. Here is the method: as §1, §2
Series [1] in a line: SPR, peptide binding to LUVs immobilized on L1 chip. As to conditions: for Kd: SPR steady state analysis, HEPES pH 7.4, room temperature, mean ± SD of triplicates; for koff PC/PG / koff PC: SPR, 10 mM HEPES pH 7.4 100 mM NaCl, room temperature, 400 s dissociation phase; for koff PC/PG: two-population fit averaged; for koff PC: two-population fit averaged (Figueira et al.); for SPR KP, DMPC: lipid/aqueous partition coefficient from SPR steady state (Figueira et al. method), DMPC LUVs; for SPR KP, DMPC / SPR KP, DMPC/PG: HEPES pH 7.4, ± SD of triplicate fits; for SPR KP, DMPC/PG: lipid/aqueous partition coefficient from SPR steady state, 95% DMPC 5% DMPG LUVs. The protocol:
The interactions between AMPs 1–5 and LUVs were first investigated by SPR as a benchmark for the MST measurements. The data was acquired using the same lipid compositions as used in the MST data acquisition. LUVs were immobilized on an L1 chip, and an increasing concentration of AMPs was injected over them. […] The dissociation rate, koff, was calculated from the dissociation step, using the methodology presented by Figueira et al.[21], summarized in Table 2.
DMPC and DMPC:5% DMPG vesicles were prepared by solubilising a known weight of lipid in chloroform with a small amount of methanol to assist in the dissolution of the PG lipid head groups. The chloroform stock was dried in vacuo to produce a lipid film, which was further dried for additional 3 h. The lipid film was solubilised in 10 mM TRIS buffer (pH 7.4) containing 100 mM NaCl to yield a 20 mM milky lipid stock.
To produce the working vesicle stock, 1 mL of vesicle stock was extruded 20 times through a 0.1 µm filter using an Avanti Lipids mini-extruder. Vesicle size was confirmed using a Malvern Zetasizer Nano ZS (Malvern Panalytical Ltd, Malvern, United Kingdom).
The SPR measurements were performed using a T200 Biacore instrument (GE Healthcare, Oslo, Norway) at room temperature. An L1 chip was covered with extruded DMPC liposomes (1 mM in 10 mM HEPES buffer pH 7.4 with 100 mM NaCl) using a flowrate of 2 µL/min for 2400 s. Chip coverage was tested by injection of 0.1 mg/mL of bovine serum albumin for 1 min at 30 µL/min, with a change of < 400 RU indicating sufficient coverage.
The liposome surface was stabilized after each injection by three subsequent injections of 10 mM NaOH at 30 µL/min for 30 s each. Between experiments, the chip surface was cleaned by 20 mM CHAPS, 40 mM octyl-β-D-glucopyranoside and 30% ethanol in turn, with each solution injected for 1 min at 30 µL/min. The control flow cell was treated identically, with the exception that only the HEPES buffer solution was injected. The results were processed using in-house MATLAB scripts (MATLAB R2020a; scripts are available at https://github.com/MarJakubec).
KD was obtained from a steady state analysis using the intensities at the 190 s dissociation time, using Eq. (1):[21]1 Req=cRmax/KD+c+Roff where Req is the response at the steady state equilibrium, c is the peptide concentration, Rmax is the maximum response and Roff the response offset.
KP was obtained from same steady state affinity values using the method presented by Figuera et al., Eq. (2):[21]2 RUS/RUL=γLKPMS/MLSW/1+σγLKPSW where RUS and RUL are the relative responses of solute (peptides) and lipids respectively, γL is the molar volume of the lipids, MS and ML are the molecular mass of solute and lipid, respectively, and [S]W is the concentration of solute in water. KP and σ are obtained from fitting (with σ being lipid to solute ratio).
For koff evaluation we have used the formalism of Figuera et al.[21] for linearization of the dissociation process, where we have identified the contribution from two different populations in the dissociation response. Koff values were then obtained by Eq. (3) and averaged by Eq. (4):3 SL(t)=αe^-koff,α^t+βe^-koff,β^t+SL,r 4 koff=αkoff,α+βkoff,β/α+β where SL is the linearized ratio of solute and lipid, α and β are individual populations, and SL,r is the retained solute fraction.
(Surface plasmon resonance follows binding to a sensor surface in real time, without labels.)

Setting [2] is: 95% DMPC 5% DMPG LUVs on L1 chip, read-out: SPR KD, DMPC/PG.
The mark [3] stands for this setting: 95% DMPC 5% DMPG LUVs on L1 chip.

For `NCCCC[C@@H]1NC(=O)[C@H](Cc2c[nH]c3ccccc23)NC(=O)[C@H](CCCCN)NC(=O)[C@H](Cc2c[nH]c3ccccc23)NC(=O)[C@H](CCCCN)NC(=O)[C@H](Cc2c[nH]c3ccccc23)NC1=O` [compound 4] (cyclo(WKWKWK)), in the series on E. coli ATCC 25922, the “E. coli MIC (ATCC 25922)” value is given as 64 µg/mL. Moreover, in the series on S. aureus ATCC 9144, the “S. aureus MIC (ATCC 9144)” value turned out to be 128 µg/mL. Further, the Kd in series [1] (setting [2]) amounted to 474 ± 45 µM. For the same compound, in series [1] (DMPC LUVs on L1 chip), the Kd came out at 712 ± 27 µM and the “koff PC” value stood at 0.90 ± 0.24 s⁻¹. Moreover, the “koff PC/PG” value in series [1] (setting [3]) was 1.32 ± 0.05 s⁻¹. In series [1], the “SPR KP, DMPC” value was 0.53 ± 0.01 × 10^3 and the “SPR KP, DMPC/PG” value was 0.63 ± 0.03 × 10^3.

Turning to `N=C(N)NCCC[C@@H]1NC(=O)[C@H](CCCNC(=N)N)NC(=O)[C@H](Cc2c[nH]c3ccccc23)NC(=O)[C@H](Cc2c[nH]c3ccccc23)NC(=O)[C@H](Cc2c[nH]c3ccccc23)NC(=O)[C@H](CCCNC(=N)N)NC1=O` [compound 1] (cyclo(WWWRRR)), in the series on E. coli ATCC 25922, the “E. coli MIC (ATCC 25922)” value came out at 8 µg/mL. In addition, the “S. aureus MIC (ATCC 9144)” value with S. aureus ATCC 9144 is 4 µg/mL. Moreover, the Kd in series [1] (setting [2]) came out at 70 ± 1 µM. In series [1] (DMPC LUVs on L1 chip), the Kd amounted to 142 ± 35 µM and the “koff PC” value was 0.22 ± 0.02 s⁻¹. Further, the “koff PC/PG” value in series [1] (setting [3]) came out at 0.19 ± 0.01 s⁻¹. Moreover, in series [1], the “SPR KP, DMPC” value is recorded as 6.65 ± 0.80 × 10^3 and the “SPR KP, DMPC/PG” value is listed as 12.71 ± 0.16 × 10^3.

For `N=C(N)NCCC[C@@H]1NC(=O)[C@H](Cc2c[nH]c3ccccc23)NC(=O)[C@H](CCCNC(=N)N)NC(=O)[C@H](Cc2c[nH]c3ccccc23)NC(=O)[C@H](CCCNC(=N)N)NC(=O)[C@H](Cc2c[nH]c3ccccc23)NC1=O` [compound 2] (cyclo(WRWRWR)), the “E. coli MIC (ATCC 25922)” value in the series with E. coli ATCC 25922 was determined as 32 µg/mL. Besides, the “S. aureus MIC (ATCC 9144)” value in the series on S. aureus ATCC 9144 amounted to 32 µg/mL. The Kd in series [1] (setting [2]) is 105 ± 7 µM. Also, in series [1] (DMPC LUVs on L1 chip), the Kd came to 318 ± 62 µM and the “koff PC” value was found to be 0.87 ± 0.19 s⁻¹. The “koff PC/PG” value in series [1] (setting [3]) worked out at 0.48 ± 0.05 s⁻¹. For the same compound, in series [1], the “SPR KP, DMPC” value is on record as 1.30 ± 0.09 × 10^3 and the “SPR KP, DMPC/PG” value is 3.16 ± 0.15 × 10^3.

Regarding `CC(C)C[C@@H]1NC(=O)[C@@H](CCCNC(=N)N)NC(=O)[C@H](CCCCN)NC(=O)[C@H](CC(N)=O)NC(=O)[C@@H](Cc2c[nH]c3ccccc23)NC(=O)[C@H](Cc2c[nH]c3ccccc23)NC1=O` [compound 5] (cyclo(LW[dW]NK[dR])), the “E. coli MIC (ATCC 25922)” value in the series with E. coli ATCC 25922 was over 256 µg/mL. For the same compound, the “antimicrobial activity against tested strain” value with E. coli ATCC 25922 (E. coli ATCC 25922, statement in text) was “inactive”. Moreover, the “S. aureus MIC (ATCC 9144)” value with S. aureus ATCC 9144 is over 256 µg/mL. For the same compound, the “antimicrobial activity against tested strain” value with S. aureus ATCC 9144 (S. aureus ATCC 9144, statement in text) is “inactive”. For the same compound, the Kd in series [1] (setting [2]) amounted to 1030 ± 58 µM. For the same compound, in series [1] (DMPC LUVs on L1 chip), the Kd worked out at 2550 ± 493 µM and the “koff PC” value was 1.76 ± 0.12 s⁻¹. In addition, the “koff PC/PG” value in series [1] (setting [3]) turned out to be 1.75 ± 0.16 s⁻¹. Moreover, in series [1], the “SPR KP, DMPC” value was 0.28 ± 0.01 × 10^3 and the “SPR KP, DMPC/PG” value is 0.40 ± 0.02 × 10^3.

For the compound `NCCCC[C@@H]1NC(=O)[C@H](CCCCN)NC(=O)[C@H](Cc2c[nH]c3ccccc23)NC(=O)[C@H](Cc2c[nH]c3ccccc23)NC(=O)[C@H](Cc2c[nH]c3ccccc23)NC(=O)[C@H](CCCCN)NC1=O` [compound 3] (cyclo(WWWKKK)), the “E. coli MIC (ATCC 25922)” value with E. coli ATCC 25922 is given as 8 µg/mL. In the series on S. aureus ATCC 9144, the “S. aureus MIC (ATCC 9144)” value amounted to 32 µg/mL. The Kd in series [1] (setting [2]) was found to be 112 ± 15 µM. Further, in series [1] (DMPC LUVs on L1 chip), the Kd was 302 ± 32 µM and the “koff PC” value turned out to be 0.48 ± 0.07 s⁻¹. For the same compound, the “koff PC/PG” value in series [1] (setting [3]) came out at 0.32 ± 0.05 s⁻¹. In series [1], the “SPR KP, DMPC” value was 2.53 ± 0.08 × 10^3 and the “SPR KP, DMPC/PG” value is 5.16 ± 0.34 × 10^3.

The values above are taken from article PMC10400562, “Label-free measurement of antimicrobial peptide interactions with lipid vesicles and nanodiscs using microscale thermophoresis” (Scientific Reports, 2023).
